Each structure is given as a SMILES string. pIC50: −log10 of the molar value. Where only a bound is given, the exact number is not on record here.

Assay [1] deals with T1, pseudo-kinase domain (JH2, amino-acids 536-812) of human V617F mutant JAK2 (Homo sapiens, UniProt O60674, F794H/V617F/W659A/W777A).
T1 construct: pseudo-kinase domain (JH2, amino-acids 536-812 with 3 surface mutations W659A, W777A, F794H); His (C); purchased BPS Bioscience 79498; host or cells: baculovirus expression system
As to the kind of experiment: JAK2 LanthaScreen JH2-V617F Binding Assay. As to conditions: JAK2 JH2-V617F 0.26 nM, 50 nM tracer, 1 hour at 25° C.; read-out: JH2 BIND V617F. As for the experimental part: Example C. JAK2 LanthaScreen JH2-V617F Binding Assay
JAK2 JH2-V617F binding assay utilizes pseudo-kinase domain (JH2, amino-acids 536-812 with 3 surface mutations W659A, W777A, F794H) of human V617F mutant JAK2 expressed as C-terminal His-Avi-tagged, biotinylated protein in a baculovirus expression system (BPS Bioscience, Catalog #79498). The assay was conducted in black 384-well polystyrene plates in a final reaction volume of 20 μL. JAK2 JH2-V617F (0.26 nM) was incubated with compounds (100 nL serially diluted in DMSO) in the presence of 50 nM Fluorescent JAK2-JH2 Tracer (MedChem Express Catalog #HY-102055) and 0.25 nM Streptavidin-Tb cryptate (Cisbio Part #610SATLB) in assay buffer (50 mM Tris, pH=7.5, 10 mM MgCl2, 0.01% Brij-35, 0.1% BSA, 1 mM EGTA, 5% Glycerol and 5 mM DTT). Non-specific binding was accessed in the presence of 2 mM ATP. After incubation for 1 hour at 25° C., LanthaScreen signals were read on a PHERAstar FS plate reader (BMG LABTECH). Data was analyzed with IDBS XLfit and GraphPad Prism 5.0 software using a four parameter dose response curve to determine IC50 for each compound.
A general note: Time-resolved FRET reads energy transfer from a long-lived donor to a nearby acceptor.

The target of assay [2] is catalytic domain (JH1, amino acids 808-1132) of human JAK2 (Homo sapiens, UniProt O60674). As to the kind of experiment: JAK2 HTRF Enzyme Activity Assay. It is filed as biochemical. As to conditions: ATP 30 µM, 60 minutes at 25° C.; read-out: V617F ENZ 30 UM.
catalytic domain (JH1, amino acids 808-1132) of human JAK2, sequence (O60674 808-1132 limits assumed): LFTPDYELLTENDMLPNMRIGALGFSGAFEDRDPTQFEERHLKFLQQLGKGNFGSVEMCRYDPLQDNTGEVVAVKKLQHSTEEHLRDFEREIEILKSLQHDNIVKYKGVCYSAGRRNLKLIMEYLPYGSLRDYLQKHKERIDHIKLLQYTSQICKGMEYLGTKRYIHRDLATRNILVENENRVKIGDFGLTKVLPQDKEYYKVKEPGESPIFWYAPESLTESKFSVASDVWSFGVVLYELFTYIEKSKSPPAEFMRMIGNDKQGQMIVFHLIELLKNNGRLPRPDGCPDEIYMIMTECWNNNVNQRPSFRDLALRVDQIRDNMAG

T1 sequence (O60674 536-812 V617F/W659A/W777A/F794H): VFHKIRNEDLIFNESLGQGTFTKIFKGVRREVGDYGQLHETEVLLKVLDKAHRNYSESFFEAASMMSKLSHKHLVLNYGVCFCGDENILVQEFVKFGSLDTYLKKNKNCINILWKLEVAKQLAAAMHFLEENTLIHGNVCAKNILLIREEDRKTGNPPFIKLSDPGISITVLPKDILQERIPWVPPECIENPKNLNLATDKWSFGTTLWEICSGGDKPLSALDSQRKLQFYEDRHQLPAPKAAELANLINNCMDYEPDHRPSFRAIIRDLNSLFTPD

Regarding `[2H]C([2H])([2H])c1cc(Nc2cc3c(cn2)n(C([2H])([2H])[2H])c(=O)n3[C@@H]2CC[C@@]([2H])(NC(=O)OC)C2)nc(-c2ncc(C(C)(C)O)s2)c1` [Example 150, Methyl ((1R,3R)-3-(6-((6-(5-(2-hydroxypropan-2-yl)thiazol-2-yl)-4-(methyl-d3)pyridin-2-yl)amino)-3-(methyl-d3)-2-oxo-2,3-dihydro-1H-imidazo[4,5-c]pyridin-1-yl)cyclopentyl-1-d)carbamate], the values for the pIC50 in assay [1] and in assay [2] were at least 8.00 and under 6.00, respectively.

In the case of `[2H]C([2H])([2H])n1c(=O)n([C@@H]2CC[C@](C)(NC(C)=O)C2)c2cc(Nc3cc(C(C)(C)O)cc(-c4cnc(OC(C)C)s4)n3)ncc21` [Example 151, N-((1S,3R)-3-(6-((4-(2-hydroxypropan-2-yl)-6-(2-isopropoxythiazol-5-yl)pyridin-2-yl)amino)-3-(methyl-d3)-2-oxo-2,3-dihydro-1H-imidazo[4,5-c]pyridin-1-yl)-1-methylcyclopentyl)acetamide], the figures for the pIC50 in assay [1] and in assay [2] were at least 8.00 and under 6.00, respectively.

Turning to `[2H]C([2H])([2H])n1c(=O)n([C@@H]2CC[C@](C)(NC(C)=O)C2)c2cc(Nc3cc(C(C)(C)O)cc(-c4cnc(OC)s4)n3)ncc21` [Example 152, N-((1S,3R)-3-(6-((4-(2-Hydroxypropan-2-yl)-6-(2-methoxythiazol-5-yl)pyridin-2-yl)amino)-3-(methyl-d3)-2-oxo-2,3-dihydro-1H-imidazo[4,5-c]pyridin-1-yl)-1-methylcyclopentyl)acetamide], the pIC50 in assay [1] is at least 8.00; in assay [2] it was under 6.00.

On to `[2H]C([2H])([2H])n1c(=O)n([C@@H]2CC[C@](C)(NC(C)=O)C2)c2cc(Nc3cc(C(C)(C)O)cc(-c4cnc(OCC)s4)n3)ncc21` [Example 153, N-((1S,3R)-3-(6-((6-(2-Ethoxythiazol-5-yl)-4-(2-hydroxypropan-2-yl)pyridin-2-yl)amino)-3-(methyl-d3)-2-oxo-2,3-dihydro-1H-imidazo[4,5-c]pyridin-1-yl)-1-methylcyclopentyl)acetamide], for which the pIC50 in assay [1] is at least 8.00; in assay [2], under 6.00.

In the case of `[2H]C([2H])([2H])n1c(=O)n([C@H]2C[C@H](NC(=O)OC)[C@@H](O)C2)c2cc(Nc3cc(C(C)(C)O)cc(-c4ncc(C(F)(F)F)s4)n3)ncc21` [Example 155, Methyl ((1S,2S,4S)-2-hydroxy-4-(6-((4-(2-hydroxypropan-2-yl)-6-(5-(trifluoromethyl)thiazol-2-yl)pyridin-2-yl)amino)-3-(methyl-d3)-2-oxo-2,3-dihydro-1H-imidazo[4,5-c]pyridin-1-yl)cyclopentyl)carbamate], the pIC50 in assay [1] was at least 8.00; in assay [2], under 6.00.

On to `[2H]C([2H])([2H])n1c(=O)n([C@@H]2CC[C@@]([2H])(NC(=O)OC)C2)c2cc(Nc3cc(C(C)(C)O)cc(-c4ncc(C(F)(F)F)s4)n3)ncc21` [Example 158, Methyl ((1R,3R)-3-(6-((4-(2-hydroxypropan-2-yl)-6-(5-(trifluoromethyl)thiazol-2-yl)pyridin-2-yl)amino)-3-(methyl-d3)-2-oxo-2,3-dihydro-1H-imidazo[4,5-c]pyridin-1-yl)cyclopentyl-1-d)carbamate], for which the pIC50 in assay [1] was at least 8.00; in assay [2], under 6.00.

Turning to `[2H]C([2H])([2H])n1c(=O)n([C@@H]2CC[C@]([2H])(NC(=O)OC)C2)c2cc(Nc3cc(C(C)(C)O)cc(-c4ncc(C(F)(F)F)s4)n3)ncc21` [Example 159, Methyl ((1S,3R)-3-(6-((4-(2-hydroxypropan-2-yl)-6-(5-(trifluoromethyl)thiazol-2-yl)pyridin-2-yl)amino)-3-(methyl-d3)-2-oxo-2,3-dihydro-1H-imidazo[4,5-c]pyridin-1-yl)cyclopentyl-1-d)carbamate], the pIC50 is at least 8.00 in assay [1] and under 6.00 in assay [2].

As for `[2H]C([2H])([2H])n1c(=O)n([C@@H]2CC[C@]([2H])(NC(=O)OC)C2)c2cc(Nc3cc(-c4cnccc4C(F)(F)F)c4nc(C)c(-c5cnn(C(F)F)c5)n4n3)ncc21` [Example 160, Methyl ((1S,3R)-3-(6-((3-(1-(difluoromethyl)-1H-pyrazol-4-yl)-2-methyl-8-(4-(trifluoromethyl)pyridin-3-yl)imidazo[1,2-b]pyridazin-6-yl)amino)-3-(methyl-d3)-2-oxo-2,3-dihydro-1H-imidazo[4,5-c]pyridin-1-yl)cyclopentyl-1-d)carbamate], the pIC50 is at least 8.00 in assay [1] and under 6.00 in assay [2].

With `[2H]C([2H])([2H])n1c(=O)n([C@@H]2CC[C@@H](NC(=O)OC)C2)c2cc(Nc3cc(C4CCOCC4)cc(-c4ncc(C(C)(C)O)s4)n3)ncc21` [Example 161, Methyl ((1R,3R)-3-(6-((6-(5-(2-hydroxypropan-2-yl)thiazol-2-yl)-4-(tetrahydro-2H-pyran-4-yl)pyridin-2-yl)amino)-3-(methyl-d3)-2-oxo-2,3-dihydro-1H-imidazo[4,5-c]pyridin-1-yl)cyclopentyl)carbamate], the pIC50 is at least 8.00 in assay [1] and under 6.00 in assay [2].

For the compound `[2H]C([2H])([2H])n1c(=O)n([C@@H]2CC[C@@]([2H])(NC(=O)OC)C2)c2cc(Nc3cc(C4CCOCC4)cc(-c4ncc(C(C)(C)O)s4)n3)ncc21` [Example 162, Methyl ((1R,3R)-3-(6-((6-(5-(2-hydroxypropan-2-yl)thiazol-2-yl)-4-(tetrahydro-2H-pyran-4-yl)pyridin-2-yl)amino)-3-(methyl-d3)-2-oxo-2,3-dihydro-1H-imidazo[4,5-c]pyridin-1-yl)cyclopentyl-1-d)carbamate], the pIC50 in assay [1] is at least 8.00; in assay [2], under 6.00.

With `[2H]C([2H])([2H])n1c(=O)n([C@@H]2CC[C@]([2H])(NC(=O)OC)C2)c2cc(Nc3cc(C4CCOCC4)cc(-c4ncc(C(C)(C)O)s4)n3)ncc21` [Example 163, Methyl ((1S,3R)-3-(6-((6-(5-(2-hydroxypropan-2-yl)thiazol-2-yl)-4-(tetrahydro-2H-pyran-4-yl)pyridin-2-yl)amino)-3-(methyl-d3)-2-oxo-2,3-dihydro-1H-imidazo[4,5-c]pyridin-1-yl)cyclopentyl-1-d)carbamate], the pIC50 in assay [1] is at least 8.00; in assay [2], 6.00 to 6.30.

Take `[2H]C([2H])([2H])n1c(=O)n([C@@H]2CC[C@@]([2H])(NC(=O)OC)C2)c2cc(Nc3cc(-c4cnccc4C(F)(F)F)cc(-c4ncc(C(C)(C)O)s4)n3)ncc21` [Example 164, Methyl ((1R,3R)-3-(6-((6′-(5-(2-hydroxypropan-2-yl)thiazol-2-yl)-4-(trifluoromethyl)-[3,4′-bipyridin]-2′-yl)amino)-3-(methyl-d3)-2-oxo-2,3-dihydro-1H-imidazo[4,5-c]pyridin-1-yl)cyclopentyl-1-d)carbamate]: the pIC50 in assay [1] was at least 8.00; in assay [2], under 6.00.

As to `[2H]C([2H])([2H])n1c(=O)n([C@@H]2CC[C@]([2H])(NC(=O)OC)C2)c2cc(Nc3cc(-c4cnccc4C(F)(F)F)cc(-c4ncc(C(C)(C)O)s4)n3)ncc21` [Example 165, Methyl ((1S,3R)-3-(6-((6′-(5-(2-hydroxypropan-2-yl)thiazol-2-yl)-4-(trifluoromethyl)-[3,4′-bipyridin]-2′-yl)amino)-3-(methyl-d3)-2-oxo-2,3-dihydro-1H-imidazo[4,5-c]pyridin-1-yl)cyclopentyl-1-d)carbamate], the pIC50 in assay [1] was at least 8.00; in assay [2], under 6.00.

With `[2H]C([2H])([2H])n1c(=O)n([C@@H]2CC[C@@]([2H])(NC(=O)OC)C2)c2cc(Nc3cc(C4CCN(C)CC4)cc(-c4ncc(C(C)(C)O)s4)n3)ncc21` [Example 166, Methyl ((1R,3R)-3-(6-((6-(5-(2-hydroxypropan-2-yl)thiazol-2-yl)-4-(1-methylpiperidin-4-yl)pyridin-2-yl)amino)-3-(methyl-d3)-2-oxo-2,3-dihydro-1H-imidazo[4,5-c]pyridin-1-yl)cyclopentyl-1-d)carbamate], the pIC50 is at least 8.00 in assay [1] and under 6.00 in assay [2].

Consider `[2H]C([2H])([2H])n1c(=O)n([C@@H]2CC[C@@]([2H])(NC(=O)OC)C2)c2cc(Nc3cc(-c4cccnc4C(F)(F)F)cc(-c4ncc(C(C)(C)O)s4)n3)ncc21` [Example 167, Methyl ((1R,3R)-3-(6-((6′-(5-(2-hydroxypropan-2-yl)thiazol-2-yl)-2-(trifluoromethyl)-[3,4′-bipyridin]-2′-yl)amino)-3-(methyl-d3)-2-oxo-2,3-dihydro-1H-imidazo[4,5-c]pyridin-1-yl)cyclopentyl-1-d)carbamate], for which the pIC50 in assay [1] was at least 8.00; in assay [2] it was under 6.00.

Values taken from patent publication US20240317744A1, “Bicyclic Ureas As Kinase Inhibitors” (Incyte Corporation, priority 2023, published 2024).
